Tests used:
BRG-1 = target: T1, BRG-1 (Homo sapiens, UniProt P51532); assay: ATPase catalytic activity of BRG-1, ADP-Glo in vitro biochemical assay; details: ADP-Glo ATPase assay, 30 nM BRG-1, 400 μM ATP; read-out: BRG1 IC50
T1 construct: made in house; host or cells: High Five insect cells
How it was run: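 Luminescence read-out: ADP formed by BRG-1 ATPase is converted to ATP and detected by luciferase. Residual ATP is first removed with ADP-Glo Reagent for 40 min at RT; detection reagent is then incubated 60 min at RT before reading.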

BRM = target: T2, BRM (Homo sapiens, UniProt P51531); assay: ATPase catalytic activity of BRM, ADP-Glo in vitro biochemical assay; details: for IC50: ADP-Glo ATPase assay, 30 nM BRM, 400 μM ATP; for Ratio* (BRG1 IC50 (μM) divided by BRM IC50 (μM)): selectivity ratio BRG1 IC50 / BRM IC50
T2 construct: made in house; host or cells: High Five insect cells
T2 sequence (P51531 whole entry): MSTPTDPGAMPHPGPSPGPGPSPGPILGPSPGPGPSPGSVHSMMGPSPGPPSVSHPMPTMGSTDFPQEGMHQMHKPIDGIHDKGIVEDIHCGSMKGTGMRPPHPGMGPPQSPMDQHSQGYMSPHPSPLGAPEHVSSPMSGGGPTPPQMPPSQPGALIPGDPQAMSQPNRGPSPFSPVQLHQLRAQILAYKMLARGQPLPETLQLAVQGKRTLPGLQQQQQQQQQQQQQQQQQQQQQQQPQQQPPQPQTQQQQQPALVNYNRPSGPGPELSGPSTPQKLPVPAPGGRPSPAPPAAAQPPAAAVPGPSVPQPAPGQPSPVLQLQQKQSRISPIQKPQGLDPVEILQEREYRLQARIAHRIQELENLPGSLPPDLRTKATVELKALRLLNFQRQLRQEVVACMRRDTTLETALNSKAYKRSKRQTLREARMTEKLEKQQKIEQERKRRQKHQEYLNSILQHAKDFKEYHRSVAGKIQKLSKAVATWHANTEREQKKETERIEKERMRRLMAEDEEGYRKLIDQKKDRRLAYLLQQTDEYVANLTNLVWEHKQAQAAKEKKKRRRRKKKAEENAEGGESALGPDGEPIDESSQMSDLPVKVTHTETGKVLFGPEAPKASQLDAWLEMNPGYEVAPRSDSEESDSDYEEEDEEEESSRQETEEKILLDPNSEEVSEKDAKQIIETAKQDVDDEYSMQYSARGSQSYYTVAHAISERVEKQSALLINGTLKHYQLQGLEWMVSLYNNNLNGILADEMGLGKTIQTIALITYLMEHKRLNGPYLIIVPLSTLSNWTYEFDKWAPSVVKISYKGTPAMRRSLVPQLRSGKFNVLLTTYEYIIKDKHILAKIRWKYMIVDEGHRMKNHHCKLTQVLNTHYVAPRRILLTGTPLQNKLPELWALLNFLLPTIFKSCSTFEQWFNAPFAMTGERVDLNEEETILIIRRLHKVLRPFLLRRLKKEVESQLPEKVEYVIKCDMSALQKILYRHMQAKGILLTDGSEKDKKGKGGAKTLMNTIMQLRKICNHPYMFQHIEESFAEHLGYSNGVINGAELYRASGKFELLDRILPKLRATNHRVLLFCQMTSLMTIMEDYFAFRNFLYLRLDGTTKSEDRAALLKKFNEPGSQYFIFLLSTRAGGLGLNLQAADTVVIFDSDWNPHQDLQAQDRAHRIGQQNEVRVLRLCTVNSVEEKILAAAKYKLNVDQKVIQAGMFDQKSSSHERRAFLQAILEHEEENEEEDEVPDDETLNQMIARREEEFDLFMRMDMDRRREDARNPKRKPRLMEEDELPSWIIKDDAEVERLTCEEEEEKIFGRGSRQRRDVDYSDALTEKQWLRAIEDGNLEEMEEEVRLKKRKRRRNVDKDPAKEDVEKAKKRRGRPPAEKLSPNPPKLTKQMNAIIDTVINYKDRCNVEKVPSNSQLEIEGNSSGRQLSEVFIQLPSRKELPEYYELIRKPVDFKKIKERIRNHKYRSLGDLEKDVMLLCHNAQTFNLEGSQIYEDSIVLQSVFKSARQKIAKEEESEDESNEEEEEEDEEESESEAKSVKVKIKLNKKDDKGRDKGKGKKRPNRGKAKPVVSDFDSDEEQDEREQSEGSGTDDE
How it was run: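 ADP-Glo luminescence, after depletion of leftover ATP and conversion of ADP, reported the activity. The 1 h room-temperature reaction held 400 μM ATP, 20 nM salmon sperm DNA and 30 nM BRM in 20 mM Tris pH 8, 20 mM MgCl2, 50 mM NaCl, 0.1% Tween-20, 1 mM DTT.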

T1 sequence (P51532 whole entry): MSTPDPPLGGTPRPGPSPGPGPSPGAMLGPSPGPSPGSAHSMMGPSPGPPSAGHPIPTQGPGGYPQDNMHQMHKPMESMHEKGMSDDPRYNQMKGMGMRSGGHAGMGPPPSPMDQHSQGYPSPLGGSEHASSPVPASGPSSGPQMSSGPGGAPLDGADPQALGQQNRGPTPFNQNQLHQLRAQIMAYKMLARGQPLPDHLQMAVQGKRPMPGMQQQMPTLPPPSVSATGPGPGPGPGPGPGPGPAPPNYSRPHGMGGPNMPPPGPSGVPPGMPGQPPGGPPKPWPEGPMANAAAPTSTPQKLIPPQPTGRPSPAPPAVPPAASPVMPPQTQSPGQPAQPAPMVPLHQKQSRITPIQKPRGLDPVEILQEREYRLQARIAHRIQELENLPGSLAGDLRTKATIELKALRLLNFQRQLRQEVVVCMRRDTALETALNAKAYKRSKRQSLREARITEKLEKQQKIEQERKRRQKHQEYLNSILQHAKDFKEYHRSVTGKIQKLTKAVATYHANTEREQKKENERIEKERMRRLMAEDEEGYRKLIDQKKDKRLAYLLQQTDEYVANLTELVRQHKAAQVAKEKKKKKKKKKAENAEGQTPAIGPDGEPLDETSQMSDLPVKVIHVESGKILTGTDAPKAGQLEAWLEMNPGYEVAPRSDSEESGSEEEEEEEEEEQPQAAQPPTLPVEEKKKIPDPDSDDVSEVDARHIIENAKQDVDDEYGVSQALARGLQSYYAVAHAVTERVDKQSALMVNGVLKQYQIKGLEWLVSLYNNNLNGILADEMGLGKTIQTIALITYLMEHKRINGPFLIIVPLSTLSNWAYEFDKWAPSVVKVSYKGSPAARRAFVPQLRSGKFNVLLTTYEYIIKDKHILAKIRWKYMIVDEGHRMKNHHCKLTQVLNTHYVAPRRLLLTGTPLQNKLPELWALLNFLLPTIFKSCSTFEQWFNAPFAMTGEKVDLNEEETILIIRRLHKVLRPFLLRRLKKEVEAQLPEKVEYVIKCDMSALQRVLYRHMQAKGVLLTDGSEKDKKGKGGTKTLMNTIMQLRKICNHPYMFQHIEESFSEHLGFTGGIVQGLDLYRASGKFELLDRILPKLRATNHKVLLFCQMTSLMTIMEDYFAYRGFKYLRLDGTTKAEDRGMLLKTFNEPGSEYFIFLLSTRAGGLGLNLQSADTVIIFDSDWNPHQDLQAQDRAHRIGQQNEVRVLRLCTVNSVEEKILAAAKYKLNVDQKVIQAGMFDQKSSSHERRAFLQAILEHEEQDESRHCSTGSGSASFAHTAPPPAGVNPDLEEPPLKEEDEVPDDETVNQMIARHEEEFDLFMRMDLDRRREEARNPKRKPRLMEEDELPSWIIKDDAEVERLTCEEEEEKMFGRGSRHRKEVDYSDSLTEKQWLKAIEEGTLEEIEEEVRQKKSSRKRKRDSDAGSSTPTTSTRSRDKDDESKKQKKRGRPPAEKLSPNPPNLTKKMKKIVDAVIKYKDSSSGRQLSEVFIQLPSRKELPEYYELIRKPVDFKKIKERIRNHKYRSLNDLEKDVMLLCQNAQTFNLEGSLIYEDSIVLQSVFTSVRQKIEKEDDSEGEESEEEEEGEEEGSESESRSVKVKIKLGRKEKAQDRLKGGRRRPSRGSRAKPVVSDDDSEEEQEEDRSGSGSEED

SMILES | IC50 (BRG-1) | IC50 (BRM) | Ratio* (BRG1 IC50 (μM) divided by BRM IC50 (μM)) (BRM)
O=C(NCc1cc2cc(-c3cncc(C4CC4)n3)ccc2cn1)c1cnc2c(c1)S(=O)(=O)CCOC2 [Compound 248] | 590 nM | 70.2 nM | 8.41
O=C(NCc1cc2nc(-c3ccccc3OC(F)F)ccc2cn1)c1ccc2c(c1)S(=O)(=O)CCOC2 [Compound 250] | 751 nM | 105 nM | 7.17
O=C(NCc1cc2nc(-c3cccc([C@@H]4CC4(F)F)c3)ccc2cn1)c1ccc2c(c1)S(=O)(=O)CCOC2 [Compound 251] | 1700 nM | 176 nM | 9.69
O=C(NCc1cc2nc(-c3cccc([C@H]4CC4(F)F)c3)ccc2cn1)c1ccc2c(c1)S(=O)(=O)CCOC2 [Compound 252] | 1380 nM | 75.3 nM | 18.31
O=C(NCc1cc2nc(-c3cccc(C4CC4)n3)ccc2nn1)c1ccc2c(c1)S(=O)(=O)CCOC2 [Compound 253] | 398 nM | 20.7 nM | 19.26
COc1ccccc1-c1ccc2cnc(CNC(=O)c3ccc4c(c3)S(=O)(=O)CCOC4)cc2n1 [Compound 254] | 517 nM | 54.2 nM | 9.53
O=C(NCc1cc2nc(-c3cccc(N4CCC4)c3)ccc2cn1)c1ccc2c(c1)S(=O)(=O)CCOC2 [Compound 255] | 487 nM | 36.4 nM | 13.37
O=C(NCc1cc2cc(-c3cccc(N4CCC4)n3)ccc2cn1)c1cnc2c(c1)S(=O)(=O)CCOC2 [Compound 256] | 426 nM | 49 nM | 8.69
O=C(NCc1cc2cc(-c3cncc(N4CCC4)n3)ccc2cn1)c1ccc2c(c1)S(=O)(=O)CCOC2 [Compound 257] | 107 nM | 15.4 nM | 6.99
O=C(NCc1cc2nc(-c3cccc(Cl)c3)ccc2cn1)c1ccc2c(c1)S(=O)(=O)CCOC2 [Compound 258] | 4120 nM | 221 nM | 18.63
CS(=O)(=O)c1cc(C(=O)NCc2cc3nc(-c4cccc(C5CC5)n4)ccc3cn2)ccc1C#N [Compound 259] | 5000 nM | 467 nM | 10.71
COC[C@H](C)S(=O)(=O)c1cccc(C(=O)NCc2cc3nc(-c4cncc(C5CC5)n4)ccc3cn2)c1 [Compound 260] | 5000 nM | 697 nM | 7.17
COc1nn(C2COC2)cc1-c1ccc2cnc(CNC(=O)c3ccc4c(c3)S(=O)(=O)CCOC4)cc2c1 [Compound 261] | 233 nM | 16.5 nM | 14.10
CC(C)(F)c1cncc(-c2ccc3cnc(CNC(=O)c4ccc5c(c4)S(=O)(=O)CCOC5)cc3n2)n1 [Compound 262] | 2620 nM | 466 nM | 5.63
O=C(NCc1cc2cc(-c3cncc(C4CC4)n3)ccc2cn1)c1ccc2c(c1)S(=O)(=O)CCOC2 [Compound 263] | 348 nM | 23.3 nM | 14.94
O=C(NCc1cc2nc(-c3cccc(C4CC4)n3)ccc2cn1)c1ccc2c(c1)S(=O)(=O)CCOC2 [Compound 264] | 590 nM | 23.5 nM | 25.10
COc1cccc(-c2ccc3cnc(CNC(=O)c4ccc5c(c4)S(=O)(=O)CCOC5)cc3n2)c1 [Compound 265] | 2400 nM | 167 nM | 14.36

SMILES | IC50 (BRG-1) | IC50 (BRM) | Ratio* (BRG1 IC50 (μM) divided by BRM IC50 (μM)) (BRM)
CS(=O)(=O)c1cc(C(=O)NCc2cc3nc(-c4cncc(C5CC5)n4)ccc3cn2)ccc1C1CC1 [Compound 266] | 5000 nM | 819 nM | 6.11
O=C(NCc1cc2nc(-c3cccc([C@H]4CC4(F)F)n3)ccc2cn1)c1ccc2c(c1)S(=O)(=O)CCOC2 [Compound 267] | 1090 nM | 35.2 nM | 30.99
O=C(NCc1cc2cc(-c3cccc(N4CCC4)n3)ccc2cn1)c1cc(F)c2c(c1)S(=O)(=O)CCOC2 [Compound 268] | 343 nM | 16.3 nM | 21.00
Cc1c(Cl)cc(C(=O)NCc2cc3nc(-c4cncc(C5CC5)n4)ccc3cn2)cc1S(C)(=O)=O [Compound 269] | 5000 nM | 200 nM | 25.03
O=C(NCc1cc2nc(-c3cccc([C@@H]4CC4(F)F)n3)ccc2cn1)c1ccc2c(c1)S(=O)(=O)CCOC2 [Compound 270] | 1570 nM | 127 nM | 12.44
O=C(NCc1cc2cc(-c3cccc(N4CCC4)n3)ccc2cn1)c1ccc2c(c1)S(=O)(=O)CCOC2 [Compound 271] | 204 nM | 16.1 nM | 12.70
CS(=O)(=O)c1cc(C(=O)NCc2cc3nc(-c4cncc(C5CC5)n4)ccc3cn2)cc(F)c1Cl [Compound 272] | 4230 nM | 245 nM | 17.28
COCc1ccc(C(=O)NCc2cc3nc(-c4cncc(C5CC5)n4)ccc3cn2)cc1S(C)(=O)=O [Compound 273] | 2800 nM | 119 nM | 23.47
CNc1cccc(-c2ccc3cnc(CNC(=O)c4ccc5c(c4)S(=O)(=O)CCOC5)cc3n2)n1 [Compound 274] | 589 nM | 69.6 nM | 8.46
CCS(=O)(=O)c1cc(C(=O)NCc2cc3nc(-c4cncc(C5CC5)n4)ccc3cn2)ccc1C [Compound 275] | 1320 nM | 84.9 nM | 15.55
O=C(NCc1cc2nc(-c3cccc(N4CC5CC(C4)O5)n3)ccc2cn1)c1ccc2c(c1)S(=O)(=O)CCOC2 [Compound 276] | 584 nM | 81.8 nM | 7.14
CS(=O)(=O)c1cc(C(=O)NCc2cc3nc(-c4cncc(C5CC5)n4)ccc3cn2)cnc1C(F)F [Compound 277] | 5360 nM | 615 nM | 8.72
O=C(NCc1cc2nc(-c3cccc(OC(F)F)c3)ccc2cn1)c1ccc2c(c1)S(=O)(=O)CCOC2 [Compound 278] | 1910 nM | 73.8 nM | 25.91
Cc1ccc(C(=O)NCc2cc3nc(-c4cncc(C5CC5)n4)ccc3cn2)cc1S(=O)(=O)C(C)C [Compound 279] | 5000 nM | 529 nM | 9.45
CC(C)(F)c1cccc(-c2ccc3cnc(CNC(=O)c4ccc5c(c4)S(=O)(=O)CCOC5)cc3n2)n1 [Compound 280] | 2170 nM | 212 nM | 10.26
CC(F)(F)c1cccc(-c2ccc3cnc(CNC(=O)c4ccc5c(c4)S(=O)(=O)CCOC5)cc3n2)n1 [Compound 281] | 1650 nM | 82.8 nM | 19.92
C[C@@H]1CN(c2cccc(-c3ccc4cnc(CNC(=O)c5ccc6c(c5)S(=O)(=O)CCOC6)cc4n3)n2)C[C@H](C)O1 [Compound 282] | 19.3 nM | 4.2 nM | 4.64

Reference: patent publication US20230416248A1, “COMPOUNDS AND USES THEREOF” (Foghorn Therapeutics Inc., priority 2020, published 2023)
